Reference: ChEMBL document CHEMBL1201862, “PubChem BioAssay data set” (2004)
Activity calls are given as the source filed them.

Tests used:
Beta-lactamase [1] = target: T1, Beta-lactamase (Pseudomonas aeruginosa, UniProt Q79MP6); assay: inhibition of IMP-1 beta-lactamase activity – biochemical, epi-absorbance, selectivity assay for VIM-2 inhibitor project, dose response (AID 1920)
Beta-lactamase [2] = target: Beta-lactamase (Salmonella choleraesuis (strain SC-B67), UniProt Q5J463); assay: Epi-absorbance-based counterscreen for selective VIM-2 inhibitors: dose response biochemical high throughput screening assay to identify inhibitors of TEM-1 serine-beta-lactamase.
Beta-lactamase [3] = target: T1, Beta-lactamase; assay: […] counterscreen for selective VIM-2 inhibitors: dose response biochemical high throughput screening assay to identify inhibitors of IMP-1 metallo-beta-lactamase.
P388 = assay: cells; assay type: functional; settings: Mus musculus
P388/ADR = assay: cells; assay type: functional; settings: Mus musculus
SN12K1 = assay: cells; assay type: functional; settings: Homo sapiens
Fatty acid synthase [4] = target: T2, Fatty acid synthase (Homo sapiens, UniProt P49327); assay: inhibition of human FAS-TE enzyme activity – biochemical, endpoint fluorescence intensity, uHTS hits, dose response (AID 624327); assay type: functional;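 also: fluorescence from hydrolysis of an O-methyl fluorescein acyl ester substrate by the enzyme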
Fatty acid synthase [5] = target: T2, Fatty acid synthase; assay: inhibition of human FAS-TE enzyme activity – biochemical, kinetic fluorescence intensity, dose response (AID 624326); assay type: functional;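 also: rate of fluorescence rise from hydrolysis of a fluorogenic O-methyl fluorescein ester substrate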
[6] = target: T3, Endoribonuclease toxin MazF (Escherichia coli K-12, UniProt P0AE70); assay: activation of MazEF endoribonuclease cleavage – biochemical, fluorescence, single-stranded RNA substrate, uHTS hits, dose response (AID 588481); assay type: functional
T3 sequence (P0AE70 whole entry): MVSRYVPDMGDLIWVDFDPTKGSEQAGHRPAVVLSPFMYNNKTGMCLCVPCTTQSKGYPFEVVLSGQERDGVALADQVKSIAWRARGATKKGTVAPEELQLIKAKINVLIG

[7] = target: T3, Endoribonuclease toxin MazF; assay: substrate-only fluorescence increase artefacts – biochemical, single-stranded RNase substrate, counter-screen for MazEF activator project, dose response (AID 588502); assay type: functional
[8] = target: T4, Sentrin-specific protease 7 (Homo sapiens, UniProt Q9BQF6); assay type: functional;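 also: Luminescence-based dose-response confirmation of ultra-high-throughput screening hits, measuring inhibition of SENP7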
T4 sequence (Q9BQF6 whole entry): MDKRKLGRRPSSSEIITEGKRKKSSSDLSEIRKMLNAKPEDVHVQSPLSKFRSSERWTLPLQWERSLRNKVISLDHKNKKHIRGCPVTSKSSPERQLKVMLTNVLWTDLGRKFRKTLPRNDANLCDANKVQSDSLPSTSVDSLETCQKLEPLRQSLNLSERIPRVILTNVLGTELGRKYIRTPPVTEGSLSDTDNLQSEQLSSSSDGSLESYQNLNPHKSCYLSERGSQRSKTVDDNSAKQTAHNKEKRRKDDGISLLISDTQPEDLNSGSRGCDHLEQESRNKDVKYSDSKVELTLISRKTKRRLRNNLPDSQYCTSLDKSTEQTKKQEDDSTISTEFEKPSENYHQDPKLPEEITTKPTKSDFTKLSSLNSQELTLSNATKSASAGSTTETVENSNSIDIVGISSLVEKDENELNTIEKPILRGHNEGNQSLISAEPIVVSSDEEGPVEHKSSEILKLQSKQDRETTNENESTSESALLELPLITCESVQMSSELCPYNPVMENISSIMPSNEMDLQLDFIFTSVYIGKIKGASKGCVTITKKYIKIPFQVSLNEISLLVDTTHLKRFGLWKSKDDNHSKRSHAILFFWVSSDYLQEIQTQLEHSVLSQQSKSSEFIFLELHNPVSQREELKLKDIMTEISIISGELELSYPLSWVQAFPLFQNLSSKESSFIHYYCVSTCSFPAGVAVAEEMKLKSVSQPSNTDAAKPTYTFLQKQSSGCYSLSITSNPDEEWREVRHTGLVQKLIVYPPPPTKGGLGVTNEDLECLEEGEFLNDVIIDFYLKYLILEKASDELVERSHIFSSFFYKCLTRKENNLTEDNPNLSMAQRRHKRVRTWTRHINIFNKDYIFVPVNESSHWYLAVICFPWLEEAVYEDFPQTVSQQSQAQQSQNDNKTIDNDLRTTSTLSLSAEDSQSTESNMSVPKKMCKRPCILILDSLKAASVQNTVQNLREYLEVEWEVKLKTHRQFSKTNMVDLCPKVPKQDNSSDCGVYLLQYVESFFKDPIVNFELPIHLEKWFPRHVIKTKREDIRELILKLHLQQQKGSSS

Caspase-3 = target: T5, Caspase-3 (Homo sapiens, UniProt P42574); assay type: functional;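 also: Dose-response selectivity test against caspase-3 for candidate inhibitors of sentrin-specific proteases (SENPs)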
T5 sequence (P42574 whole entry): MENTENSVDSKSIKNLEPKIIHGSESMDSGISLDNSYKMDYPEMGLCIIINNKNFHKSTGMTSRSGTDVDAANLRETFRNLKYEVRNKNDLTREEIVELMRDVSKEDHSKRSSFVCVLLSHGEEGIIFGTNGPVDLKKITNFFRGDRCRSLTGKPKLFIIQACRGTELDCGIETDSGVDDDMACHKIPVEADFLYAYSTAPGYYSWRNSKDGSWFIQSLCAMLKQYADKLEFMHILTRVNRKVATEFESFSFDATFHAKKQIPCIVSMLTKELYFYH

[9] = target: T6, Sentrin-specific protease 8 (Homo sapiens, UniProt Q96LD8); assay type: functional;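 also: luminescence read-out of SENP8 inhibition, dose-response confirmation following an ultra-high-throughput screen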
T6 sequence (Q96LD8 whole entry): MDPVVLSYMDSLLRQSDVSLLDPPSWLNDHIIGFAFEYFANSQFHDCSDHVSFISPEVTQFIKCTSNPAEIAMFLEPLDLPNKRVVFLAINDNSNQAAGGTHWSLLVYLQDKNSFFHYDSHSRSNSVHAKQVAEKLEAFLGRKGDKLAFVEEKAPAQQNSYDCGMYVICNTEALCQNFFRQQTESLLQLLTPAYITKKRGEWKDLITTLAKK

[10] = target: T7, Sentrin-specific protease 6 (Homo sapiens, UniProt Q9GZR1); assay type: functional;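 also: Luminescence-based dose-response confirmatory assay of SENP6 inhibition, following up an ultra-high-throughput screen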
T7 sequence (Q9GZR1 whole entry): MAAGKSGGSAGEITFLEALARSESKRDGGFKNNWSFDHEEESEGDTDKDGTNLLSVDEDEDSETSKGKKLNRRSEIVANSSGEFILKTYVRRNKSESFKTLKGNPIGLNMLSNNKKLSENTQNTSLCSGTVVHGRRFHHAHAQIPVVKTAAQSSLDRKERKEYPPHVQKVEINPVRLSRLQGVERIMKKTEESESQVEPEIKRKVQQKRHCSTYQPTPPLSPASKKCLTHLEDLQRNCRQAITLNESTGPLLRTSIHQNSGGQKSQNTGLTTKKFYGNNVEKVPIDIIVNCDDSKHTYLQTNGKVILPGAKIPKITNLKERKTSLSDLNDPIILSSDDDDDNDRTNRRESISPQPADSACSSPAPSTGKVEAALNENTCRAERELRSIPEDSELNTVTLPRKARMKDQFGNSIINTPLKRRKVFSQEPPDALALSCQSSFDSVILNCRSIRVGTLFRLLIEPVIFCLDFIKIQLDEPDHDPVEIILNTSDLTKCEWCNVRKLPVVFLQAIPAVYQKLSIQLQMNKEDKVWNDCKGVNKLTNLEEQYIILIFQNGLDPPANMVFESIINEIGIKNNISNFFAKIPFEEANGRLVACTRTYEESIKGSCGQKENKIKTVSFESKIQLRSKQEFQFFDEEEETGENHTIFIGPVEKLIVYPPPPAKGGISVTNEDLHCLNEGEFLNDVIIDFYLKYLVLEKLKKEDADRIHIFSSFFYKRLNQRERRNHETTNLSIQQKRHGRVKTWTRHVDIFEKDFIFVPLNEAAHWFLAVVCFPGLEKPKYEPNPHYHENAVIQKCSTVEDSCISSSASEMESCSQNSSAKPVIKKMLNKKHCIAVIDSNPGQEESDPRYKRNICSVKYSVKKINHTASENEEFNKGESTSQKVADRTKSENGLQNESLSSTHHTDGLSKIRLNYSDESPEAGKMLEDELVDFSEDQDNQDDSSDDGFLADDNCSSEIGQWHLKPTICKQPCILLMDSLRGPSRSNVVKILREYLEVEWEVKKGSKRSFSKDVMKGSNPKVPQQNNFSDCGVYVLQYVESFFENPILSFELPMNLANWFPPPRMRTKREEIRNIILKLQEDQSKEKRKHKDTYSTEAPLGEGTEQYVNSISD

[11] = target: SWI/SNF-related matrix-associated actin-dependent regulator of chromatin subfamily A member 2 (Homo sapiens, UniProt P51531); assay: Luminescence-based cell-based high throughput dose response assay to identify activators of the function of SWI/SNF related, matrix associated, actin dependent regulator of chromatin, subfamily a, member 2 (SMARCA2, BRM).; assay type: functional
[12] = Counterscreen for activators of the function of SWI/SNF related, matrix associated, actin dependent regulator of chromatin, subfamily a, member 2 (SMARCA2, BRM): Luminescence-based cell-based high throughput dose response assay to identify non-selective compounds using the VP16 reporter assay.; assay type: functional
Paired box protein Pax-8 = Paired box protein Pax-8 (Homo sapiens, UniProt Q06710); assay: PAX8 transcriptional activity inhibition in RMG-I – RMG-I cells, luciferase, cherry-pick, dose response (AID 687027); assay type: functional, cell-based;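 also: luciferase reporter driven by Pax8 target thyroperoxidase promoter measured by SteadyGlo luminescence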
[13] = luciferase reporter signal suppression in cells – H4 neuroglioma cells, luminescence, dose response (AID 1990); assay type: functional, cell-based
[14] = alpha-synuclein stem-loop luciferase translation blockers – H4 neuroglioma cells, luminescence, confirmation (AID 1988); assay type: functional, cell-based
[15] = Luminescence Cell-Based Dose Response HTS to Identify Inhibitors of 5'UTR Stem-Loop Driven Prion Protein mRNA Translation in H4 Neuroglioblastoma Cells. [Related pubchem assays: 1827 (Project Summary), 1813 (Primary HTS)]; assay type: functional

T2 sequence (P49327 whole entry): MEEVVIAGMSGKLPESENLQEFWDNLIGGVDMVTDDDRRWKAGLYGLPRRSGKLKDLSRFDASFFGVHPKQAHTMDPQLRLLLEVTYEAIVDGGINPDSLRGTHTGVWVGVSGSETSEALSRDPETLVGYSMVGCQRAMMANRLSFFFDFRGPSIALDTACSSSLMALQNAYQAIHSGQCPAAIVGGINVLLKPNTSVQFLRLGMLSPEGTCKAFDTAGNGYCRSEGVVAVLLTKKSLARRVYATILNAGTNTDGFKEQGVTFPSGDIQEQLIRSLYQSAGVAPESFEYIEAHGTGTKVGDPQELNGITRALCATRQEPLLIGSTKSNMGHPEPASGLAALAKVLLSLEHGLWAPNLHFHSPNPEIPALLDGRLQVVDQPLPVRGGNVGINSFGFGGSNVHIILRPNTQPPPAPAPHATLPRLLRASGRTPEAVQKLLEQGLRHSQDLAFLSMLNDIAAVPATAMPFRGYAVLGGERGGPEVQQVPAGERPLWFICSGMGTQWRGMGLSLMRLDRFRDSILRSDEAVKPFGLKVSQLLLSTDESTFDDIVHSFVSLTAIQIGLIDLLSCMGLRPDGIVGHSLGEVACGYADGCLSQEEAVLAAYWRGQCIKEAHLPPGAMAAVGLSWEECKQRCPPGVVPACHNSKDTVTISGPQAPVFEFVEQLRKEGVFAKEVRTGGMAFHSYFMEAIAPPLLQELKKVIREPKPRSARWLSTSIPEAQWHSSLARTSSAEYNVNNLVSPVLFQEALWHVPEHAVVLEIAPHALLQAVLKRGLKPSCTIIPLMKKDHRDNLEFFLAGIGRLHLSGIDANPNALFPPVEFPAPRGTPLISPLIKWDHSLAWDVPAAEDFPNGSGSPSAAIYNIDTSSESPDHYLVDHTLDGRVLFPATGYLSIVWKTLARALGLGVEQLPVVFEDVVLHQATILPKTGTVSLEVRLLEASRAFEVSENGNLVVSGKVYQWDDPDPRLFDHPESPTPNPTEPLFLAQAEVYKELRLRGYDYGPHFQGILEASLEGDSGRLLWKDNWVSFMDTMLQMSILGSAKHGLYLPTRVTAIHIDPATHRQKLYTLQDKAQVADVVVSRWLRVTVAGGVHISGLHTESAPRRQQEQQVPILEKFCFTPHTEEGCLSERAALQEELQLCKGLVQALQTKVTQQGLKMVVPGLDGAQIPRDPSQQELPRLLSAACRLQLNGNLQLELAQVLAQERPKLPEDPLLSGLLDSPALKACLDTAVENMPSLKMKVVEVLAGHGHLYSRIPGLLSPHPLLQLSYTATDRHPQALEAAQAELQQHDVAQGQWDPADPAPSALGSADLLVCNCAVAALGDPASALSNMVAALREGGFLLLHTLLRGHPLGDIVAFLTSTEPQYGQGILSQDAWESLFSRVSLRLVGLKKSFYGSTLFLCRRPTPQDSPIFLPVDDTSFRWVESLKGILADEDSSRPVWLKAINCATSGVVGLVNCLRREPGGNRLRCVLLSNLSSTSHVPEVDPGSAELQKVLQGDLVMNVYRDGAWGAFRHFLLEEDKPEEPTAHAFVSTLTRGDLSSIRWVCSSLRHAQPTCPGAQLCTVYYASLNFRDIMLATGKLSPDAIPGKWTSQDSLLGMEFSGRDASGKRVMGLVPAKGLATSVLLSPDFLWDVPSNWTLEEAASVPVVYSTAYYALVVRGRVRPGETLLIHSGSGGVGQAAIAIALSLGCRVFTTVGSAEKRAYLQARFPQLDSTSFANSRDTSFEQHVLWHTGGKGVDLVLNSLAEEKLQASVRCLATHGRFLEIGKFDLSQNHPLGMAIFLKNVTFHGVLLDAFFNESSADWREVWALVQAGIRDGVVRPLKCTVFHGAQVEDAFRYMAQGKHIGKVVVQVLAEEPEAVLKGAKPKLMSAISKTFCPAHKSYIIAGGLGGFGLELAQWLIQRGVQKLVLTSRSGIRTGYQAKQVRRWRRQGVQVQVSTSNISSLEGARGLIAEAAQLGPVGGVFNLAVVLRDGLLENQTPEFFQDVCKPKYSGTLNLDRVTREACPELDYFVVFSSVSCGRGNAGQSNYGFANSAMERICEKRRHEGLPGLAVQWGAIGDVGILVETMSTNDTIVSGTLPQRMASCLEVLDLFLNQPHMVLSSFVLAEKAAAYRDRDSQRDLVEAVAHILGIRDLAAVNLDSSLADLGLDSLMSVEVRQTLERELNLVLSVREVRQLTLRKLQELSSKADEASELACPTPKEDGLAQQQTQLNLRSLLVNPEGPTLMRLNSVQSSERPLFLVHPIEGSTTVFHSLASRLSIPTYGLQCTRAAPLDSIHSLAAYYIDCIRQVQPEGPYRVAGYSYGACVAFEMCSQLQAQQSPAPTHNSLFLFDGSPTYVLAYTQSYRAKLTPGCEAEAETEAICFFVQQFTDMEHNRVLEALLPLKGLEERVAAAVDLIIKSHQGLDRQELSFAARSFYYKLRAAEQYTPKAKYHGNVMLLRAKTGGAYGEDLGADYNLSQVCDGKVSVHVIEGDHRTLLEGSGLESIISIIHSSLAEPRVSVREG
T1 sequence (Q79MP6 whole entry): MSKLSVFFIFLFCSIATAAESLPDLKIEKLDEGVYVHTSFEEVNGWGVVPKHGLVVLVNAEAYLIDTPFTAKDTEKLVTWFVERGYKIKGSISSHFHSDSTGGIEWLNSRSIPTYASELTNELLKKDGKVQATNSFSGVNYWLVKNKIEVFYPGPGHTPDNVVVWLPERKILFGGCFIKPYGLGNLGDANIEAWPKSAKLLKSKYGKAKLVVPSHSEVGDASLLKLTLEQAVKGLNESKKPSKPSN
Sequence of SWI/SNF-related matrix-associated actin-dependent regulator of chromatin subfamily A member 2 (P51531 whole entry): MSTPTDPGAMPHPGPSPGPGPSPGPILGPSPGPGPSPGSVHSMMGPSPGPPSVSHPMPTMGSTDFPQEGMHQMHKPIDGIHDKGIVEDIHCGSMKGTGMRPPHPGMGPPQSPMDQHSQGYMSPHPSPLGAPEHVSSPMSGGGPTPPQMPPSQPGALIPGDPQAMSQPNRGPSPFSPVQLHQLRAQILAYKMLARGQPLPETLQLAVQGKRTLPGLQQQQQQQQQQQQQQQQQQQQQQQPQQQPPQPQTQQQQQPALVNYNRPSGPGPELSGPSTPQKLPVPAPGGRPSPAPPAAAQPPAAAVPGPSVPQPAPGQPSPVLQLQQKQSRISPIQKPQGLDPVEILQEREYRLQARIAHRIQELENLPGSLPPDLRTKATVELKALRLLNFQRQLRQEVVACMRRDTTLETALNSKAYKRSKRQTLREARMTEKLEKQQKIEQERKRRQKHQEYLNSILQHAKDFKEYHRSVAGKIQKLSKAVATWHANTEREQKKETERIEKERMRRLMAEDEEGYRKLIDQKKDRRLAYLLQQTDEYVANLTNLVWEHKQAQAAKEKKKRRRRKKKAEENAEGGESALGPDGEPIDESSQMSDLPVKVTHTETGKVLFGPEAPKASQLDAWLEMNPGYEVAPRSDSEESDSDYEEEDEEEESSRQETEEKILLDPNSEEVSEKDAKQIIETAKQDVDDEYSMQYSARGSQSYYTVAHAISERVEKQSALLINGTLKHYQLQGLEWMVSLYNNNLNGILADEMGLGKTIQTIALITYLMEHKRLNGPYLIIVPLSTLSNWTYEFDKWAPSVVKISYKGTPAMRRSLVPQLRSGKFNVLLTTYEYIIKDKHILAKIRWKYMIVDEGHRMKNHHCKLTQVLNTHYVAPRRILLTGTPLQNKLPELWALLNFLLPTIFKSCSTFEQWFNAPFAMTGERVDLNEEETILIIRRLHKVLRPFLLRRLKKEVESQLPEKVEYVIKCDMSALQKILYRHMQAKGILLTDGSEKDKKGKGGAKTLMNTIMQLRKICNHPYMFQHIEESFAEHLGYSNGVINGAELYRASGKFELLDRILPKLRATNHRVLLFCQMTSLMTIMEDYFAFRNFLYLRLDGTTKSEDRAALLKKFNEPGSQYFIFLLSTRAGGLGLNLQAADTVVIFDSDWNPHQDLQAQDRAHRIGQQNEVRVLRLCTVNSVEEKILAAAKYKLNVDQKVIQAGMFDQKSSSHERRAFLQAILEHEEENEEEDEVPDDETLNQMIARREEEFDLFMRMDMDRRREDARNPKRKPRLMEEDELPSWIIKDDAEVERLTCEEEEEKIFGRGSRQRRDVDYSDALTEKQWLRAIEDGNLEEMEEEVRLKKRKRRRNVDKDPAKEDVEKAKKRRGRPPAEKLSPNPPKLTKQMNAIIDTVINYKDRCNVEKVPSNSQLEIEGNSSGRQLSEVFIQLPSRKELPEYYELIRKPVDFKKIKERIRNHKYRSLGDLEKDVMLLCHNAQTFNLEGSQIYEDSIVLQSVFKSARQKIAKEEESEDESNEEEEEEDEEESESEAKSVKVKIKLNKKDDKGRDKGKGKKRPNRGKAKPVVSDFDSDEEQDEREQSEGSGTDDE
Sequence of Beta-lactamase (Salmonella choleraesuis (strain SC-B67), UniProt Q5J463) (Q5J463 whole entry): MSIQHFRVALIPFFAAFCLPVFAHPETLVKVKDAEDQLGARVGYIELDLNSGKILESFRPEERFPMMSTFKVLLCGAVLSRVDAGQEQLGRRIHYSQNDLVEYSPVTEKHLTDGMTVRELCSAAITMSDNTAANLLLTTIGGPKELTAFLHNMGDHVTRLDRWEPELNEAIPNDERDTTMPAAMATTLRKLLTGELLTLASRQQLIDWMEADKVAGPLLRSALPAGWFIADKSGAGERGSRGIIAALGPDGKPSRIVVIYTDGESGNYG
Sequence of Paired box protein Pax-8 (Q06710 whole entry): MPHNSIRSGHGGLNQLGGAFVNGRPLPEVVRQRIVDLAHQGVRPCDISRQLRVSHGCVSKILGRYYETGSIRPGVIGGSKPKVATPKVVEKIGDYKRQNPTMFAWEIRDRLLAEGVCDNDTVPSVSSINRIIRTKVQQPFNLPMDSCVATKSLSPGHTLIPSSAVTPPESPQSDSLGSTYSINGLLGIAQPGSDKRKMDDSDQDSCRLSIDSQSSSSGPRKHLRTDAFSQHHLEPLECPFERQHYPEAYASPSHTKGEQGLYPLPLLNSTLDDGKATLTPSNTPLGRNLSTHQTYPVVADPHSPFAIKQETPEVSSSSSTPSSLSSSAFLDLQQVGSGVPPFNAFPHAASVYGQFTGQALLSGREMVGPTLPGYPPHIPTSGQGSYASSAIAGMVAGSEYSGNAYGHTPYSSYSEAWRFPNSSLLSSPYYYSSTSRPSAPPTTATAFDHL

CCCn1c(S)nnc1C(C)C
IC50 (Beta-lactamase [1]): > 59.6 µM (inactive) | IC50 (Beta-lactamase [2]): > 59.6 µM (inactive) | IC50 (Beta-lactamase [3]): > 59.6 µM (inactive)

OC(C1CO1)C(O)C1CO1 (stereo not given)
GI50 (P388): 13.5 µM (inactive) | GI50 (P388/ADR): 9.79 µM (inactive) | GI50 (SN12K1): 54.7 µM (inactive)

CC(C)(C)C(=O)OCc1ccc(C2=CC(=O)CC(C)(C)C2=O)cc1
IC50 (Fatty acid synthase [4]): 1.28 µM (active) | IC50 (Fatty acid synthase [5]): 3.9 µM (active)

O=C(CSc1nnc2scc(-c3ccccc3)n12)c1ccc2c(c1)OCCO2
EC50 [6]: > 99 µM (inactive) | EC50 [7]: > 99 µM (inactive)

O=C1NC(O)CCN1C1OC(CO)C(O)C1O (stereo not given)
GI50 (P388): > 250 µM (inactive) | GI50 (P388/ADR): > 250 µM (inactive) | GI50 (SN12K1): > 250 µM (inactive)

CCCn1c(O)c(N=Nc2ccc3ccccc3n2)c2ccccc21
EC50 [6]: > 99 µM (inactive) | EC50 [7]: > 99 µM (inactive)

Cc1cc(C(=O)N/N=C/C(Cl)=C/c2ccccc2)c(C)o1
IC50 [8]: 7.77 µM (active) | IC50 (Caspase-3): 18.2 µM (active) | IC50 [9]: > 100 µM (inactive) | IC50 [10]: 22.6 µM (active)

O=C1N[C@H]2[C@H](O)[C@H](O)[C@@H](O)[C@H](O)[C@@H]2c2cc3c(c(O)c21)OCO3 [PANCRATISTATIN]
GI50 (P388): 0.0366 µM (active) | GI50 (P388/ADR): 0.0406 µM (active) | GI50 (SN12K1): 0.047 µM (active)

CC(C)C(=O)Nc1ccc2nn(-c3ccc(F)cc3)nc2c1
IC50 [8]: 3.03 µM (active) | IC50 (Caspase-3): 8.48 µM (active) | IC50 [9]: 41.3 µM (active) | IC50 [10]: 6.19 µM (active)

CC/C=C\C/C=C\C/C=C\CCCCCCCC(=O)OC [METHYL LINOLENATE]
GI50 (P388): > 10 µM (inactive) | GI50 (P388/ADR): 28.2 µM (inactive) | GI50 (SN12K1): > 100 µM (inactive)

COC(=O)N/N=C(\C)c1ccccc1Br
EC50 [11]: > 91.1 µM (inactive) | EC50 [12]: > 91.1 µM (inactive)

CN(C)CCN(C(=O)/C=C/c1cccs1)c1nc2c(F)cc(F)cc2s1
AC50 (Paired box protein Pax-8): 8.86 µM (active) | EC50 [13]: 12.5 µM (active) | EC50 [11]: > 91.1 µM (inactive) | EC50 [14]: 8.47 µM (active) | EC50 [15]: 10.4 µM (active) | EC50 [12]: > 91.1 µM (inactive)

COc1ccccc1C(=O)Nc1nnc(SCC(=O)NCc2ccco2)s1
IC50 (Beta-lactamase [1]): > 59.6 µM (inactive) | IC50 (Beta-lactamase [2]): > 59.6 µM (inactive) | IC50 (Beta-lactamase [3]): > 59.6 µM (inactive)

CCCCC(CC)C(=O)Nc1cc([N+](=O)[O-])ccc1F (stereo not given)
IC50 (Fatty acid synthase [4]): 3.19 µM (active) | IC50 (Fatty acid synthase [5]): 4.44 µM (active)

CC(C)=CCc1cc(-c2oc3cc(O)cc(O)c3c(=O)c2O)ccc1O [ISOLICOFLAVONOL]
EC50 [6]: 14 µM (active) | EC50 [7]: > 99 µM (inactive)

CCn1c(O)c(N=Nc2ccc3ccccc3n2)c2ccccc21
IC50 [8]: 0.857 µM (active) | IC50 (Caspase-3): 2.1 µM (active) | IC50 [9]: 1.83 µM (active) | IC50 [10]: 1.11 µM (active)

COc1ccc([N+](=O)[O-])cc1NC(=O)C(C)OC(=O)CC1CCCC1 (stereo not given)
IC50 (Fatty acid synthase [4]): 6.83 µM (active) | IC50 (Fatty acid synthase [5]): 5.28 µM (active)

NC(=O)c1ccccc1NC(=O)/C=C/c1c(Cl)cccc1Cl
IC50 [8]: 6.11 µM (active) | IC50 (Caspase-3): 21.5 µM (active) | IC50 [9]: > 100 µM (inactive) | IC50 [10]: > 100 µM (inactive)

COC(=O)c1ccc(NC(=O)Nc2ccc(F)c(Cl)c2)cc1
IC50 [8]: 6.56 µM (active) | IC50 (Caspase-3): 48 µM (active) | IC50 [9]: > 100 µM (inactive) | IC50 [10]: > 100 µM (inactive)

COCCN1CCN(c2c(C)c(C)nc3cc(-c4cccc(OC)c4)nn23)CC1
EC50 [11]: > 91.1 µM (inactive) | EC50 [12]: > 91.1 µM (inactive)
